Laboratory results reported in patent US20250008950A1, “BIOCIDE COMPOSITIONS” (BASF SE, priority 2021, published 2025).

Assay: Solubility of biocide in solvent system (A1+A2)
Assay type: physicochemical
Description: General method of preparing emulsifiable composition (C): Component (A1) and component (A2) were mixed and heated to a temperature in the range of 20° C. to 100° C. to obtain a solution. Respective amount of the biocide was charged to the above solution at a temperature in the range of 20° C. to 100° C. to obtain the solution containing biocide. Emulsifier and other optional ingredients were charged o to the above biocide containing solution to obtain the emulsifiable composition (C).

CO/C=C(/C(=O)OC)c1ccccc1Oc1cc(Oc2ccccc2C#N)ncn1 [Azoxystrobin]
Solubility wt. % in total (C) (solvent system Acetophenone (A1) / 2-Methoxy-4-Methylphenol (A2), molar ratio A1:A2 1:1): 27 wt. %
Solubility wt. % in total (C) (solvent system Acetophenone (A1) / 2-sec-Butylphenol (A2), molar ratio A1:A2 1:1): 32 wt. %
Solubility wt. % in total (C) (solvent system Acetophenone (A1) / Phenyl acetic acid (A2), molar ratio A1:A2 2:1): 25 wt. %
Solubility wt. % in total (C) (solvent system Acetophenone (A1) / Thymol (A2), molar ratio A1:A2 1:1): 28 wt. %
